Tests used:
in vivo [1] = conditions: rat, po
Procedure: (§1) Three studies were performed to investigate the pharmacokinetics of oral administration of a scyllo-cyclohexanehexyl (Table 1):
Plasma pharmacokinetics (PK) of a scyllo-cyclohexanehexyl in rats was assessed after single oral doses of 15, 50 and 150 mg/kg. After single oral doses in rats, maximum plasma concentration (Cmax) and exposure (AUC0-t) values increased proportionally with dose level of the scyllo-cyclohexanehexyl. Other parameters were unchanged with dose level. The scyllo-cyclohexanehexyl was absorbed rapidly, with mean tmax observed between 1.0 and 2.2 hours post-dose. […] Estimates of mean residence time (MRT) were consistent. Volumes of distribution (Vdss) were large, indicating wide distribution of scyllo-cyclohexanehexyl in rats.

in vivo [2] = conditions: dog, po
Procedure: as §1
Two studies have investigated the single dose PK of oral administration of a scyllo-cyclohexanehexyl in dogs. The 14 day study investigated 18 animals. On Day 1 of this study Cmax and AUC values increased proportionally with dose level of a scyllo-cyclohexanehexyl. […] The extensive brain penetrance of the scyllo-cyclohexanhexyl (see below) may be relevant in this regard.

[3] = Single oral and intravenous dose pharmacokinetics, dose range-finding study in beagle dogs; assay type: in vivo, beagle dog; conditions: for Tmax: po; for Vd: read-out: VdSS
Procedure: PK of single oral doses of the scyllo-cyclohexanhexyl was also investigated in a preliminary fashion in a dose range-finding study in 5 beagle dogs. […] The Cmax and AUC values increased proportionally with dose, consistent with observations in the larger study. Estimates of t½ ranged from 2 to 5 hours. Neither dose nor route of administration had any clear effect on t½, MRT, Cl/F or Vdss.

[4] = beagle, dog, plasma, dogs, single intravenous dose 80 mg/kg
[5] = beagle, dog, plasma, dogs, single intravenous dose 240 mg/kg
[6] = beagle, dog, plasma, dogs, single oral dose 20 mg/kg
[7] = beagle, dog, plasma, dogs, single oral dose 80 mg/kg
[8] = beagle, dog, plasma, dogs, single oral dose 240 mg/kg

OC1C(O)C(O)C(O)C(O)C1O (centres unmarked) [AZD-103, scyllo-inositol]
AUC(0-inf) (in vivo [1]; 15 mg/kg): 41.9 ± 11.9 µg·h/mL | AUC(0-t) (in vivo [1]; 15 mg/kg): 39.7 ± 11.3 µg·h/mL | CL/F (in vivo [1]; 15 mg/kg): 12.8 mL/min/kg | Cmax (in vivo [1]; 15 mg/kg): 13200 ± 2000 ng/mL | MRT (in vivo [1]; 15 mg/kg): 3.7 ± 0.5 h | Tmax (in vivo [1]; 15 mg/kg): 1 h | Vd (in vivo [1]; 15 mg/kg): 2.82 L/kg | half-life (in vivo [1]; 15 mg/kg): 2.7 ± 0.6 h | kel (in vivo [1]; 15 mg/kg): 0.27 ± 0.07 h⁻¹ | AUC(0-inf) (in vivo [1]; 50 mg/kg): 169 ± 31.8 µg·h/mL | AUC(0-t) (in vivo [1]; 50 mg/kg): 163 ± 29 µg·h/mL | CL/F (in vivo [1]; 50 mg/kg): 10.1 mL/min/kg | Cmax (in vivo [1]; 50 mg/kg): 45300 ± 7100 ng/mL | MRT (in vivo [1]; 50 mg/kg): 3.6 ± 0.6 h | Tmax (in vivo [1]; 50 mg/kg): 1.5 ± 0.5 h | Vd (in vivo [1]; 50 mg/kg): 2.13 L/kg | half-life (in vivo [1]; 50 mg/kg): 2.4 ± 0.2 h | kel (in vivo [1]; 50 mg/kg): 0.29 ± 0.02 h⁻¹ | AUC(0-inf) (in vivo [1]; 150 mg/kg): 552 ± 154 µg·h/mL | AUC(0-t) (in vivo [1]; 150 mg/kg): 537 ± 154 µg·h/mL | CL/F (in vivo [1]; 150 mg/kg): 9.55 mL/min/kg | Cmax (in vivo [1]; 150 mg/kg): 131000 ± 54800 ng/mL | MRT (in vivo [1]; 150 mg/kg): 3.9 ± 0.7 h | Tmax (in vivo [1]; 150 mg/kg): 2.2 ± 1.5 h | Vd (in vivo [1]; 150 mg/kg): 2.24 L/kg | half-life (in vivo [1]; 150 mg/kg): 2.1 ± 0.2 h | kel (in vivo [1]; 150 mg/kg): 0.33 ± 0.03 h⁻¹ | AUC(0-inf) (in vivo [2]; 15 mg/kg): 23.8 ± 4.5 µg·h/mL | AUC(0-t) (in vivo [2]; 15 mg/kg): 22.6 ± 4.5 µg·h/mL | CL/F (in vivo [2]; 15 mg/kg): 3.04 mL/min/kg | Cmax (in vivo [2]; 15 mg/kg): 10000 ± 2500 ng/mL | MRT (in vivo [2]; 15 mg/kg): 3.5 ± 0.8 h | Tmax (in vivo [2]; 15 mg/kg): 1.7 ± 0.5 h | VdSS (in vivo [2]; 15 mg/kg): 0.6325 ± 0.2371 L/kg | half-life (in vivo [2]; 15 mg/kg): 2 ± 0.8 h | kel (in vivo [2]; 15 mg/kg): 0.4 ± 0.2 h⁻¹ | AUC(0-inf) (in vivo [2]; 50 mg/kg): 116 ± 22.8 µg·h/mL | AUC(0-t) (in vivo [2]; 50 mg/kg): 114 ± 22.9 µg·h/mL | CL/F (in vivo [2]; 50 mg/kg): 2.07 mL/min/kg | Cmax (in vivo [2]; 50 mg/kg): 47400 ± 12700 ng/mL | MRT (in vivo [2]; 50 mg/kg): 2.9 ± 0.3 h | Tmax (in vivo [2]; 50 mg/kg): 1.2 ± 0.4 h | VdSS (in vivo [2]; 50 mg/kg): 0.3659 ± 0.1219 L/kg | half-life (in vivo [2]; 50 mg/kg): 2.1 ± 0.3 h | kel (in vivo [2]; 50 mg/kg): 0.3 ± 0.04 h⁻¹ | AUC(0-inf) (in vivo [2]; 150 mg/kg): 455 ± 121 µg·h/mL | AUC(0-t) (in vivo [2]; 150 mg/kg): 450 ± 118 µg·h/mL | CL/F (in vivo [2]; 150 mg/kg): 1.56 mL/min/kg | Cmax (in vivo [2]; 150 mg/kg): 124000 ± 22700 ng/mL | MRT (in vivo [2]; 150 mg/kg): 3.3 ± 0.3 h | Tmax (in vivo [2]; 150 mg/kg): 2.2 ± 0.4 h | VdSS (in vivo [2]; 150 mg/kg): 0.3074 ± 0.0744 L/kg | half-life (in vivo [2]; 150 mg/kg): 1.7 ± 0.2 h | kel (in vivo [2]; 150 mg/kg): 0.4 ± 0.05 h⁻¹ | Tmax ([3]; beagle, dog, plasma, 20 mg/kg, dogs, single oral dose 20 mg/kg): 1.5 ± 0.6 h | Tmax ([3]; beagle, dog, plasma, 80 mg/kg, dogs, single oral dose 80 mg/kg): 2 ± 1.2 h | Tmax ([3]; beagle, dog, plasma, 240 mg/kg, beagle dogs, following an oral dose (20, 80 and 240 mg/kg)): 1.5 to 2 h | Tmax ([3]; beagle, dog, plasma, 240 mg/kg, dogs, single oral dose 240 mg/kg): 2 ± 1.4 h | bioavailability ([3]; beagle, dog, plasma, dogs, 80 mg/kg dose level, oral vs i.v.): > 90% | AUC(0-inf) [3, 4]: 173 ± 9 µg·h/mL | AUC(0-t) [3, 4]: 167 ± 7 µg·h/mL | MRT [3, 4]: 4.6 ± 1.2 h | Vd [3, 4]: 2.1 L/kg | half-life ([3]; beagle, dog, plasma, dogs, single intravenous dose 80 mg/kg, read-out: t1/2 (converted)): 3.3 ± 0.3 h | AUC(0-inf) [3, 5]: 248 ± 25 µg·h/mL | AUC(0-t) [3, 5]: 244 ± 24 µg·h/mL | MRT [3, 5]: 3.3 ± 0.5 h | Vd [3, 5]: 3.22 L/kg | half-life ([3]; beagle, dog, plasma, dogs, single intravenous dose 240 mg/kg, read-out: t1/2 (converted)): 2.3 ± 0.2 h | AUC(0-inf) [3, 6]: 51.7 ± 15.7 µg·h/mL | AUC(0-t) [3, 6]: 42.1 ± 8.4 µg·h/mL | CL/F [3, 6]: 6.97 mL/min/kg | Cmax [3, 6]: 5900 ± 3100 ng/mL | MRT [3, 6]: 10.1 ± 5.9 h | half-life ([3]; beagle, dog, plasma, dogs, single oral dose 20 mg/kg, read-out: t1/2 (converted)): 5 ± 3.9 h | AUC(0-inf) [3, 7]: 246 ± 53 µg·h/mL | AUC(0-t) [3, 7]: 243 ± 54 µg·h/mL | CL/F [3, 7]: 5.63 mL/min/kg | Cmax [3, 7]: 69000 ± 23500 ng/mL | MRT [3, 7]: 4.1 ± 0.8 h | half-life ([3]; beagle, dog, plasma, dogs, single oral dose 80 mg/kg, read-out: t1/2 (converted)): 2 ± 0.3 h | AUC(0-inf) [3, 8]: 489 ± 99 µg·h/mL | AUC(0-t) [3, 8]: 477 ± 94 µg·h/mL | CL/F [3, 8]: 8.45 mL/min/kg | Cmax [3, 8]: 89500 ± 27800 ng/mL | MRT [3, 8]: 5.2 ± 0.2 h | half-life ([3]; beagle, dog, plasma, dogs, single oral dose 240 mg/kg, read-out: t1/2 (converted)): 2 ± 0.4 h | half-life ([3]; dog, plasma, other: oral and intravenous (range over both routes), beagle dogs, 20, 80 and 240 mg/kg p.o., 80 and 240 mg/kg i.v., read-out: t½): 2 to 5 h | Cp0 ([3]; dogs, single intravenous dose 80 mg/kg): 87.2 ± 13.2 µg/mL
